Consider one compound from ChEMBL document CHEMBL4340520, “Hederagenin amide derivatives as potential antiproliferative agents” (Eur J Med Chem, 2019).

Experiment [1] deals with FaDu. As to the kind of experiment: Cytotoxicity against human FADU cells assessed as reduction in cell viability after 96 hrs by SRB assay. Format: functional, cell-based. Background: The SRB assay estimates cell density from bound dye.
Experiment [2] deals with A2780. As to the kind of experiment: Cytotoxicity against human A2780 cells assessed as cell membrane permeability at 6 uM after 24 hrs by acridine orange/propidium iodide staining based fluorescence microscopic method. Format: functional.
Experiment [3] concerns HT-29. As to the kind of experiment: Cytotoxicity against human HT-29 cells assessed as cell membrane permeability at 2.5 to 5 uM after 24 hrs by acridine orange/propidium iodide staining based fluorescence microscopic method. Format: functional.
Experiment [4] has as its system SW-1736. As to the kind of experiment: Cytotoxicity against human SW1736 cells assessed as reduction in cell viability after 96 hrs by SRB assay. The note with it: SW-1736, 96 h. Format: functional, cell-based.
Experiment [5] deals with HT-29. As to the kind of experiment: Potency index, ratio of betulinic acid EC50 to test compound EC50 for cytotoxicity against human HT-29 cells. Format: functional.
In experiment [6] the test system is A2780. As to the kind of experiment: Cytotoxicity against human A2780 cells assessed as reduction in cell viability after 96 hrs by SRB assay. The note with it: A2780, 96 h. Format: functional, cell-based.
Experiment [7] relates to HT-29. As to the kind of experiment: Potency index, ratio of hederagenin EC50 to test compound EC50 for cytotoxicity against human HT-29 cells. Format: functional.
Experiment [8] relates to HT-29. As to the kind of experiment: Cytotoxicity against human HT-29 cells assessed as reduction in cell viability after 96 hrs by SRB assay. Format: functional, cell-based. The note with it: HT-29, 96 h.
Experiment [9] has as its system NIH3T3. As to the kind of experiment: Cytotoxicity against mouse NIH/3T3 cells assessed as reduction in cell viability after 96 hrs by SRB assay. Format: cell-based. The following applies: NIH3T3, 96 h.
The subject of experiment [10] is A2780. As to the kind of experiment: Induction of apoptosis in human A2780 cells assessed as increase in secondary necrotic cells at 6 uM after 24 hrs by Annexin V-FITC/propidium iodide staining-based flow cytometric analysis. Format: functional, cell-based. On the technique in general: In flow cytometry, cells or beads pass a laser one at a time.

Activity calls are given as the source filed them. No cut-off for these calls is given here.

`CC1(C)CC[C@]2(C(=O)N3CCCC3)CC[C@]3(C)C(=CC[C@@H]4[C@@]5(C)CC[C@H](O)[C@@](C)(CO)[C@@H]5CC[C@]43C)[C@@H]2C1`: the EC50 in experiment [1] was determined as 2.8 µM; in [4], 3.6 µM; in [6] it was 3 µM; in experiment [8], 1.2 µM; in experiment [9], 2.2 µM. Moreover, the outcome in experiment [2], in [3] and in experiment [10] was Active. Further, the entries for the “Ratio EC50” value in experiment [5] and in [7] were 15 and 30, respectively.

Usually EC50 stands for the concentration giving half of the maximal effect.
